The record followed here is US10906878B2, “Kinase inhibitors for the treatment of disease” (Dana-Farber Cancer Institute, Inc., priority 2013, dated 2021).

“And” between values parts separate entries of the source, which are not always exact repeats. Identical values can stand only once. Like-named read-outs stand apart in the source and are kept apart here. A value given as a limit tells only on which side of the number the result lay.

The test system of one data set is KIF5B/Ret_V804M. As to the kind of experiment: Ba/F3 cell growth inhibition (MTS assay), KIF5B/Ret_V804M. It counts as cell-based. Here is the method: (§1) Growth and inhibition of growth was assessed by MTS assay. This assay, a colorimetric method for determining the number of viable cells, is based on the bioreduction of 3-(4,5-dimethylthiazol-2-yl)-5-(3-carboxymethoxyphenyl)-2-(4-sulfophenyl)-2H-tetrazolium (MTS) by cells to a formazan product that is soluble in cell culture medium, can be detected spectrophotometrically and was performed according to the manufacturer's recommended conditions. Ba/F3 cells were exposed to treatment for 72 hours and the number of cells used per experiment determined empirically to assure linear growth kinetics over that time period. All experimental points were set up in six to twelve wells and all experiments were repeated at least three times. […] The curves were fitted using a non-linear regression model with a sigmoidal dose response.
(In general: Tetrazolium assays rely on reduction of a dye to a coloured formazan, in cell work by metabolically active cells.)

The target in data set [1] is EGFR L858R/T790M Ba/F3 cells (Homo sapiens (Human), UniProt P00533, L858R/T790M). The experiment in a line: Ba/F3 cell growth inhibition (MTS assay), EGFR L858R/T790M. The class given is cell-based. To be noted: Assay 1; L858R/T790M; read-out: EGFR Ba/F3 cells IC 50 (nM) Assay 1 L858R/T790M.
Text: (§2) The specific cDNAs encoding the oncogenic alterations (EGFR: Del 19, L858R, L718Q, L844V, Del/T790M, L858R/T790M, Del 19/L718Q, Del 19/L844V, Del 19/T790M/L718Q and L858R/T790M/L718Q; FGFR: TEL-FGFR1, TEL-FGFR2, TEL-FGFR1 V561M, TEL-FGFR2 V561M; ALK: EML4-ALK; ROS1: CD74-ROS1) were cloned into the pDNA-Dual (BD Biosciences) vector using standard molecular biology techniques. Mutations were introduced using site-directed mutagenesis (Agilent) with mutant specific primers according to the manufacturer's instructions. All constructs were confirmed by DNA sequencing. The constructs were introduced into Ba/F3 cells using retroviral infection. Polyclonal cell lines were established by puromycin selection and subsequently cultured in the absence of interleukin-3 (IL-3). Uninfected Ba/F3 cells or cell lines expressing green fluorescent protein (GFP) were used as controls.
as §1

For a further data set, the target named is EGFR Del Ba/F3 cells (Homo sapiens, UniProt P00533, cells depend on it, form not given). The experiment in a line: Ba/F3 cell growth inhibition (MTS assay), EGFR Del. The following applies: for EGFR activity (% Control, 1.0 μM drug) Assay 1 Del / IC50: Assay 1; for IC50: Del, read-out: EGFR Ba/F3 cells IC 50 (nM) Assay 1 Del. It counts as cell-based.
Text: as §2, §1

Data set [2] addresses EGFR L858R/T790M/L718Q Ba/F3 cells (Homo sapiens (Human), UniProt P00533, L718Q/L858R/T790M). As to the kind of experiment: Ba/F3 cell growth inhibition (MTS assay), EGFR L858R/T790M/L718Q. It counts as cell-based.
Text: as §2, §1

The target of data set [3] is EGFR Del/T790M/L718Q Ba/F3 cells (Homo sapiens, UniProt P00533, L718Q/T790M, cells depend on it, form not given). It counts as cell-based.
Text: as §2, §1

Data set [4] has as its target EGFR L718Q/L858R Ba/F3 cells (Homo sapiens (Human), UniProt P00533, L718Q/L858R). The experiment in a line: Ba/F3 cell growth inhibition (MTS assay), EGFR L858R/L718Q. It counts as cell-based. To be noted: L718Q/L858R.
The target of data set [5] is EGFR Wild type vIII Ba/F3 cells (Homo sapiens (Human), UniProt P00533, DELINS30-297G). The experiment in a line: Ba/F3 cell growth inhibition (MTS assay), EGFR Wild type vIII. The class given is cell-based.
A short description of data set [6]: Microsome Stability Mouse. The class given is in vitro ADME. The following applies: mouse microsomes.
The target in data set [7] is EGFR Del/T790M Ba/F3 cells (Homo sapiens, UniProt P00533, T790M, cells depend on it, form not given). The experiment in a line: Ba/F3 cell growth inhibition (MTS assay), EGFR Del/T790M. The class given is cell-based. The following applies: for EGFR activity (% Control, 1.0 μM drug) Assay 1 Del/T790M / IC50: Assay 1; for IC50: Del/T790M, read-out: EGFR Ba/F3 cells IC 50 (nM) Assay 1 Del/T790M.
Text: as §2, §1

The target in the next data set is EGFR L858R Ba/F3 cells (Homo sapiens (Human), UniProt P00533, L858R). The experiment in a line: Ba/F3 cell growth inhibition (MTS assay), EGFR L858R. It counts as cell-based. To be noted: for EGFR activity (% Control, 1.0 μM drug) Assay 1 L858R / IC50: Assay 1; for IC50: L858R, read-out: EGFR Ba/F3 cells IC 50 (nM) Assay 1 L858R.
Text: as §2, §1

Where [8] appears, read: Assay 1; T/L/L718Q; read-out: EGFR Ba/F3 cells IC 50 (nM) Assay 1 T/L/L718Q.
Where [9] appears, read: Assay 1, read-out: EGFR Ba/F3 cells IC 50 (nM) Assay 1 Wild type vIII.

For `C=CC(=O)Nc1cccc(N(C(=O)Nc2ccccc2)c2cc(Nc3ccc(N4CCN(C)CC4)cc3OC)ncn2)c1` [Compound 1A, N-(3-(1-(6-((2-methoxy-4-(4-methylpiperazin-1-yl)phenyl)amino)pyrimidin-4-yl)-3-phenylureido)phenyl)acrylamide], the “EGFR activity (% Control, 1.0 μM drug) Assay 1 KIF5B/Ret_V804M” value in the data set on KIF5B/Ret_V804M is 65 % Control. Further, the IC50 came out at 3.1 nM in data set [1]; 6.33 nM at EGFR Del Ba/F3 cells; 178 nM in data set [2] (setting [8]); 49.8 nM in [4] (Assay 1, read-out: EGFR Ba/F3 cells IC 50 (nM) Assay 1 L718Q/L858R); 149 nM in data set [4] (Assay 2, read-out: EGFR Ba/F3 cells IC 50 (nM) Assay 2 L718Q/L858R); 16.4 nM in data set [5] (setting [9]). In addition, the IC50 came out at 19 nM in data set [7] and 1.56 nM at EGFR L858R Ba/F3 cells. Besides, the “EGFR activity (% Control, 1.0 μM drug) Assay 1 Del” value on EGFR Del Ba/F3 cells came to 4 % Control. Also, the “EGFR activity (% Control, 1.0 μM drug) Assay 2 Del” value at EGFR Del Ba/F3 cells was found to be 0 % Control. Also, the “EGFR activity (% Control, 1.0 μM drug) Assay 1 Del/T790M/L718Q” value in data set [3] (Assay 1) worked out at 63 % Control. For the same compound, the “EGFR activity (% Control, 1.0 μM drug) Assay 2 Del/T790M/L718Q” value in data set [3] is 83 % Control. The “EGFR Ba/F3 cells Assay 1 Del/T/L718Q % inhibition 1.0 uM” value in data set [3] (Assay 1, Del/T/L718Q, 1.0 uM) was determined as 47%. The “Microsome Stability Mouse min” value in data set [6] was 14 min. Also, the “EGFR activity (% Control, 1.0 μM drug) Assay 1 Del/T790M” value in data set [7] is 3 % Control. The “EGFR activity (% Control, 1.0 μM drug) Assay 2 Del/T790M” value in data set [7] is reported as 1 % Control. Also, the “EGFR activity (% Control, 1.0 μM drug) Assay 1 L858R” value at EGFR L858R Ba/F3 cells amounted to 2 % Control. For the same compound, the “EGFR activity (% Control, 1.0 μM drug) Assay 2 L858R” value at EGFR L858R Ba/F3 cells turned out to be 5 % Control.
Take `C=CC(=O)Nc1cccc(N(C(=O)Oc2ccccc2)c2ccnc(Nc3ccc(N4CCN(C)CC4)cc3OC)n2)c1` [Compound 10A]: the “KIF5B/Ret_V804M Ba/F3 cell growth (% control, 1.0 μM drug)” value in the data set on KIF5B/Ret_V804M (Assay 1) came out at 91 % Control. Further, the IC50 in data set [1] is 14.8 nM; on EGFR Del Ba/F3 cells, 4.64 nM; in data set [2] (read-out: EGFR Ba/F3 cells IC 50 (nM) Assay 1 T/L/L718Q; Assay 1; T/L/L718Q), 270 nM; in data set [3] (read-out: EGFR Ba/F3 cells IC 50 Assay 1 Del/T/L718Q, Assay 1, Del/T/L718Q) it was > 1000 nM and 1000 nM; in data set [4] (read-out: EGFR Ba/F3 cells IC 50 (nM) Assay 1 L718Q/L858R, Assay 1), 146 nM; in data set [4] (read-out: EGFR Ba/F3 cells IC 50 (nM) Assay 2 L718Q/L858R, Assay 2), 204 nM. For the same compound, the values for the IC50 (in data set [5] (read-out: EGFR Ba/F3 cells IC 50 (nM) Assay 1 Wild type vIII); in data set [7]; at EGFR L858R Ba/F3 cells) were 28.1 nM, 22.9 nM and 1.52 nM, respectively. Further, at EGFR Del Ba/F3 cells, the “EGFR activity (% Control, 1.0 μM drug) Assay 1 Del” value stood at 4 % Control. The “EGFR activity (% Control, 1.0 μM drug) Assay 2 Del” value on EGFR Del Ba/F3 cells is listed as 1 % Control. Moreover, the “EGFR activity (% Control, 1.0 μM drug) Assay 1 Del/T790M/L718Q” value in data set [3] (Assay 1) was 76 % Control. In addition, the “EGFR activity (% Control, 1.0 μM drug) Assay 2 Del/T790M/L718Q” value in data set [3] is 84 % Control. In [6], the “Microsome Stability Mouse min” value is reported as 18.5 min. Besides, the “EGFR activity (% Control, 1.0 μM drug) Assay 1 Del/T790M” value in data set [7] was found to be 2 % Control. Also, in [7], the “EGFR activity (% Control, 1.0 μM drug) Assay 2 Del/T790M” value is listed as 2 % Control. In addition, the “EGFR activity (% Control, 1.0 μM drug) Assay 1 L858R” value on EGFR L858R Ba/F3 cells is 4 % Control. Also, the “EGFR activity (% Control, 1.0 μM drug) Assay 2 L858R” value on EGFR L858R Ba/F3 cells turned out to be 3 % Control.
As for `C=CC(=O)Nc1cccc(N(C(=O)N[C@@H](C)c2ccccc2)c2cc(Nc3ccc(N4CCN(C)CC4)cc3OC)ncn2)c1` [Compound 34A], the IC50 in data set [1] turned out to be 20 nM; at EGFR Del Ba/F3 cells, 19.7 nM; in data set [2] (setting [8]), 312 nM; in [5] (setting [9]), 10.1 nM; in [7], 60.4 nM; at EGFR L858R Ba/F3 cells, 0.51 nM. Also, the “Microsome Stability Mouse min” value in [6] is given as 9.4 min.
As for `C=CC(=O)Nc1cccc(N(C(=O)NCc2cccs2)c2cc(Nc3ccc(N4CCOCC4)cc3OC)ncn2)c1` [Compound 55A], the IC50 in data set [1] was 2.4 nM; at EGFR Del Ba/F3 cells it was 2 nM; in data set [2] (setting [8]), 657 nM; in data set [5] (setting [9]), 2.3 nM; in data set [7], 15.9 nM; on EGFR L858R Ba/F3 cells, 0.5 nM. Besides, the “Microsome Stability Mouse min” value in data set [6] is listed as 1.8 min.
